In patent US20100226922A1, “SPECIFIC PROTEASE INHIBITORS AND THEIR USE IN CANCER THERAPY” (priority 2006, published 2010):

Legend:
[1] = tested on: EpCAM-negative NIH3T3 control cells; assay: Proliferation of EpCAM-negative NIH3T3 control cells; type: cell-based, murine; conditions: treatment with DAPT
Procedure: (§1) We further investigated the significance of PS activity on EpCAM-mediated growth transformation of two cell types. Murine NIH3T3 transfectants (which were grown and transfected as described in Example 1) that ectopically express EpCAM, and FaDu carcinoma cells that naturally express EpCAM were treated with the DAPT over 4 days. […] Noteworthy, besides its capacity to rescue cells from DAPT-mediated growth inhibition, the expression of EpIC-YFP did even further increase proliferation of EpCAM-expressing FaDu carcinoma cells.

[2] = tested on: NIH3T3 transfectants that ectopically express EpCAM; assay: EpCAM-mediated growth transformation (cell numbers), NIH3T3 transfectants ectopically expressing EpCAM; type: cell-based, murine
Procedure: as §1

FaDu carcinoma cells = assay: Proliferation (cell numbers) of FaDu carcinoma cells; type: cell-based, human
Procedure: as §1, with “cells. Also, siRNA-mediated TACE reduction of proliferation of FaDu cells was tested. […] Modest effects may be explained by the comparatively low transfection efficiency of this cell line (FIG. 3A).” for “cells.”

[3] = tested on: TCF/Lef-responsive promoters in HEK293 cells; type: cell-based, human
[4] = tested on: EpEX shedding in FaDu cells; assay: EpEX shedding by FaDu cells expressing endogenous EpCAM; type: cell-based, human; conditions: treated with TAPI-2
Procedure: The soluble ectodomain EpEX was detected in cell-free supernatants FaDu cells (Experiment was carried out as described for HEK293 cells).
(§2) Next, HEK293 cells were transiently transfected with EpCAM-YFP, treated with 40 μM TACE inhibitor TAPI-2 (Biomol, Germany) and EpIC formation monitored as described above for the inhibition of presenilin-2. […] Finally, the effect of TACE inhibition on the generation of the EpCAM ectodomain was assessed. HEK293-EpCAM cells were cultured two days in the presence or absence of TAPI-2 (40 μM) and cell-free conditioned supernatants were collected upon centrifugation (13,000 rpm, 10 min, 4° C.). Thereafter, immunoprecipitations were conducted with antibodies specific for EpEX as described above. […] In all cases, EpEX was devoid of the EpIC domain as it no longer reacted with the EpIC-specific antibody. Ectodomain shedding may thus be a basic requirement for the cleavage of EpIC, as is the case for certain other receptors (Medina and Dotti, 2003, Cell Signal 15: 829-841).

[5] = tested on: EpCAM ectodomain (EpEX) shedding in HEK293-EpCAM cells; assay: EpCAM ectodomain shedding, immunoprecipitation from conditioned supernatant of HEK293-EpCAM cells; type: cell-based, human; conditions: TAPI-2 40 μM, two days, versus vehicle diluent
Procedure: In a next step, we assessed the existence of a shed ectodomain of EpCAM. Immunoprecipitation was performed with conditioned cell-free supernatants of HEK293-EpCAM and HEK293-control transfectants using antibodies specific for the extracellular (EpEC), i.e. HO.3 (an α-EpEC antibody; kind gift from Dr. Horst Lindhofer, TrionPharma, Munich, Germany) and intracellular (EpIC) domain of EpCAM (see above) essentially as described above. For a positive control, immunoprecipitation was performed in parallel with whole cell lysate of HEK293-EpCAM cells.
as §2, with “Ectodomain shedding may thus be a basic requirement for the cleavage of EpIC, as is the case for certain other receptors (Medina and Dotti, 2003, Cell Signal 15: 829-841).” left out

[6] = tested on: EpCAM-YFP cleavage in HEK293 cells; assay: EpIC formation (EpCAM cleavage) by immunoblot in HEK293 cells transiently transfected with EpCAM-YFP; type: cell-based, human; conditions: for EpIC cleavage / release of EpIC-YFP from EpCAM-YFP: single cells incubated with recombinant EpEX, monitored over time
Text: In the beginning of the study nothing was known about the molecular mechanisms underlying the signalling mechanisms of EpCAM. In order to test for potential EpCAM cleavage, full-length EpCAM was C-terminally fused to the yellow fluorescence protein to generate EpCAM-YFP. Similarly, a potential intracellular domain of EpCAM (EpIC), starting with serine^289, was fused to the YFP moiety to generate EpIC-YFP. For this purpose, EpCAM or EpIC cDNA sequences were cloned into peYFP-N1 (BD Biosciences, Heidelberg Germany). […] HEK293 cells are human embryonic kidney cells, which were cultured in standard DMEM containing 10% fetal calf serum and passaged three times per week. Transfection was carried out with MATra reagent (IBA, Göttingen, Germany) in six-well plates (5×10^5 cells/well) according to the manufacturer's protocol. One microgram of plasmid DNA was transfected per sample for a time period of 24 h. For immunoblot analysis, 1×10^6 cells were lysed in 100 μl lysis buffer (TBS/1% triton and protease inhibitors). Lysates were pre-cleared upon centrifugation (13.000 rpm, 4° C., 10 min), separated upon SDS-PAGE, and transferred onto PVDF membranes (Millipore, Bedford, US). The expression of both proteins was assessed upon immunobloting with EpIC- (A20 or 1144, which are α-EpIC antibodies; Santa Cruz Biotech, USA and Epitomics, USA) and YFP-specific antibodies in combination with horseradish peroxidase (HRP)-conjugated secondary antibodies and the ECL reagent (Amersham Biosciences).
The interaction of EpCAM with PS-2 and TACE indicates an involvement of these proteases in the proteolytic processing of EpCAM. To confirm this, HEK293 cells were transiently transfected with EpCAM-YFP expression plasmid. Briefly, 5×10^5 cells were plated in 6-well plates and transiently transfected 24 h later with 1 μg plasmid DNA using the MATra transfection reagent (IBA, Göttingen, Germany—1 μl reagent per 1 μg DNA). Transiently transfected HEK293 cells were treated with 60 nM of the γ-secretase inhibitor Compound E (Alexis Biochemicals, Germany) over a time period of two days. Proteins were separated by SDS-PAGE (30 mA/gel, 10% polyacrylamid gel), transferred onto PVDF membranes (Millipore, Bedford, US). Cleavage of EpIC was assessed with an EpIC-specific antibody (1144, Epitomics, USA) in a time kinetic. Treatment of transfected cells with compound E led to the reduced formation of EpIC along with the accumulation of intermediate cleavage products of EpCAM with a molecular weight of 33-37 kDa (FIG. 2C). These intermediates most likely represent EpCAM molecules lacking the ectodomain but which were not cleaved at the intracellular site. […] Thus, inhibition of presenilins has an impact on EpCAM signaling capacity.
as §2, with “Ectodomain shedding may thus be a basic requirement for the cleavage of EpIC, as is the case for certain other receptors (Medina and Dotti, 2003, Cell Signal 15: 829-841).” left out

[7] = target: EpCAM (epithelial cell adhesion molecule), full-length (human) (UniProt P16422); assay: cell-based or functional assay
[8] = tested on: endogenous EpCAM in FaDu cells; assay: EpIC retention in the plasma membrane of isolated FaDu cells treated with EpEX; type: cell-based, human
Procedure: In search for inducers of EpCAM signaling, we investigated the possibility that EpEX serves as a soluble ligand for EpCAM. EpCAM was described as a homophilic adhesion molecule, which can confer intra- and intercellular adhesion via two distinct, cystein-rich extracellular domains. […] HEK293 cells were plated as single cells, transfected with EpCAM-YFP expression vector, and incubated with recombinant EpEX. EpIC formation was then monitored over time by immunoblotting (see above). […] This observation was further corroborated in carcinoma cells with respect to the cleavage of endogenous EpCAM molecules. […] In the absence of EpEX in the culture medium, a mean of 74% of single cells retained EpIC in the plasma membrane, while only 39% of the cells did so following treatment with EpEX.

[9] = target: T1, EpCAM (epithelial cell adhesion molecule), full-length (human, UniProt P16422 24-314); assay: cell-based or functional assay
T1 sequence (looked up): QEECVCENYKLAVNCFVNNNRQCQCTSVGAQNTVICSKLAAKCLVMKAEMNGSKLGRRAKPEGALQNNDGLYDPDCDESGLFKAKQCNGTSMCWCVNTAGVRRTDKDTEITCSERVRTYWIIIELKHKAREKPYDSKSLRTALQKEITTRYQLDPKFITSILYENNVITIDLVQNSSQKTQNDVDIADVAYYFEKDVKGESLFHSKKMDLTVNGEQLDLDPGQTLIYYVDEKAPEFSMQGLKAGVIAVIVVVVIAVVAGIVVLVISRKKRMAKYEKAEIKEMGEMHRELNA

[10] = DAPT over 4 days, data not shown
[11] = DAPT plus EpIC-YFP expression (rescue)

C[C@H](NC(=O)Cc1cc(F)cc(F)c1)C(=O)N[C@H](C(=O)OC(C)(C)C)c1ccccc1 [DAPT, N—[N-(3,5-difluorophenacetyl)-L-alanyl]-(S)-phenyl-glycine t-butyl ester]
cell proliferation [1]: remained unaffected | EpCAM-mediated growth transformation (cell numbers) [2, 10]: substantially inhibited | cell numbers under DAPT with expression of EpIC-YFP [2, 11]: restored cell numbers to the level of untreated cells | EpCAM-mediated growth transformation (cell numbers) (FaDu carcinoma cells; [10]): substantially inhibited | cell numbers under DAPT with expression of EpIC-YFP (FaDu carcinoma cells; [11]): restored cell numbers to the level of untreated cells

[Cl-].[Li+] [lithium chloride]
mean induction of TCF/Lef [3]: 2.5 fold

CC(C)C[C@H](CC(=O)NO)C(=O)N[C@H](C(=O)N[C@@H](C)C(=O)NCCN)C(C)(C)C [TAPI-2]
EpEX shedding [4]: significant reduction of EpEX shedding | ectodomain shedding in the cell culture supernatant [5]: strong reduction of ectodomain shedding | EpIC cleavage ([6]; 40 μM TAPI-2): substantial reduction of EpIC cleavage | c-Myc induction ([6]; 40 μM TAPI-2): decrease in c-Myc induction | formation of EpCAM intermediates ([6]; 40 μM TAPI-2): no effect whatsoever

recombinant EpCAM extracellular domain EpEX (EpEXrec) (from UniProt P16422 24-265) (ligand)
single FaDu cells retaining EpIC in the plasma membrane, following treatment with EpEX [7]: 39% | single FaDu cells retaining EpIC in the plasma membrane, in the absence of EpEX (control) [7]: 74%

B1: EpEXrec: recombinant EpCAM extracellular domain EpEX (protein)
chain: QEECVCENYKLAVNCFVNNNRQCQCTSVGAQNTVICSKLAAKCLVMKAEMNGSKLGRRAKPEGALQNNDGLYDPDCDESGLFKAKQCNGTSMCWCVNTAGVRRTDKDTEITCSERVRTYWIIIELKHKAREKPYDSKSLRTALQKEITTRYQLDPKFITSILYENNVITIDLVQNSSQKTQNDVDIADVAYYFEKDVKGESLFHSKKMDLTVNGEQLDLDPGQTLIYYVDEKAPEFSMQGLK
single cells that retained EpIC in the plasma membrane (mean) ([8]; after treatment with EpEX, 74% in the absence of EpEX): 39% | EpIC immunoreactivity at the site of the plasma membrane ([8]; isolated FaDu cells treated with EpEX): significant loss | EpIC cleavage / release of EpIC-YFP from EpCAM-YFP [6]: time-dependent induction of EpIC cleavage

B2: heat-treated EpEX: heat-treated recombinant EpCAM ectodomain, used as inactive control (protein, UniProt P16422 24-265, looked up)
extracellular domain: QEECVCENYKLAVNCFVNNNRQCQCTSVGAQNTVICSKLAAKCLVMKAEMNGSKLGRRAKPEGALQNNDGLYDPDCDESGLFKAKQCNGTSMCWCVNTAGVRRTDKDTEITCSERVRTYWIIIELKHKAREKPYDSKSLRTALQKEITTRYQLDPKFITSILYENNVITIDLVQNSSQKTQNDVDIADVAYYFEKDVKGESLFHSKKMDLTVNGEQLDLDPGQTLIYYVDEKAPEFSMQGLK
modifications: extracellular domain heat-treated
EpIC cleavage / release of EpIC-YFP from EpCAM-YFP [6]: did not result in a release of EpIC-YFP

B3: four and a half LIM domain protein FHL2 (other, human, UniProt Q14192 1-279, looked up)
chain: MTERFDCHHCNESLFGKKYILREESPYCVVCFETLFANTCEECGKPIGCDCKDLSYKDRHWHEACFHCSQCRNSLVDKPFAAKEDQLLCTDCYSNEYSSKCQECKKTIMPGTRKMEYKGSSWHETCFICHRCQQPIGTKSFIPKDNQNFCVPCYEKQHAMQCVQCKKPITTGGVTYREQPWHKECFVCTACRKQLSGQRFTARDDFAYCLNCFCDLYAKKCAGCTNPISGLGGTKYISFEERQWHNDCFNCKKCSLSLVGRGFLTERDDILCPDCGKDI
cell numbers at day five of treatment with EpCAM- or FHL2-specific siRNA against control siRNA [9]: 2.5 fold lower
